The values that follow come from US9914731B2, “Pyrazolo[1,5-a]pyridine derivatives and methods of their use” (Ignyta, Inc., priority 2013, dated 2018).

The assay has as its target recombinant human baculovirus-expressed cMET (Homo sapiens (Human), UniProt P08581). In words: c-MET kinase assay (HTRF KinEASE). In kind it is biochemical. Particulars: average of two or more determinations; read-out: c-MET IC50.
For `CCn1cc(C(=O)Nc2ccc(Oc3cc(-c4ncccn4)cn4nccc34)c(F)c2)c(=O)n(-c2ccc(F)cc2)c1=O` [Example 132, 1-Ethyl-3-(4-fluoro-phenyl)-2,4-dioxo-1,2,3,4-tetrahydro-pyrimidine-5-carboxylic acid [3-fluoro-4-(6-pyrimidin-2-yl-pyrazolo[1,5-a]pyridin-4-yloxy)-phenyl]-amide], the IC50 lay in the range of 10 to 100 nM.

`Cc1noc(C)c1-c1cc(Oc2ccc(NC(=O)c3cccn(-c4ccc(F)cc4)c3=O)cc2F)c2ccnn2c1` [Example 48, 1-(4-Fluoro-phenyl)-2-oxo-1,2-dihydro-pyridine-3-carboxylic acid{4-[6-(3,5-dimethyl-isoxazol-4-yl)-pyrazolo[1,5-a]pyridin-4-yloxy]-3-fluoro-phenyl}-amide]: the concentration for half-maximal inhibition (IC50) is under 10 nM.

Turning to `CCn1cc(C(=O)Nc2ccc(Oc3cc(N4CCS(=O)(=O)CC4)cn4nccc34)c(F)c2)c(=O)n(-c2ccc(F)cc2)c1=O` [Example 73, 1-Ethyl-3-(4-fluoro-phenyl)-2,4-dioxo-1,2,3,4-tetrahydro-pyrimidine-5-carboxylic acid{4-[6-(1,1-dioxo-thiomorpholin-4-yl)-pyrazolo[1,5-a]pyridin-4-yloxy]-3-fluoro-phenyl}-amide], the IC50 was under 10 nM.

For `CCn1cc(C(=O)Nc2ccc(Oc3cc(-c4cnco4)cn4nccc34)c(F)c2)c(=O)n(-c2ccc(F)cc2)c1=O` [Example 52, 1-Ethyl-3-(4-fluoro-phenyl)-2,4-dioxo-1,2,3,4-tetrahydro-pyrimidine-5-carboxylic acid[3-fluoro-4-(6-oxazol-5-yl-pyrazolo[1,5-a]pyridin-4-yloxy)-phenyl]-amide], the half-maximal inhibitory concentration (IC50) is under 10 nM.

On to `CCOc1ccn(-c2ccc(F)cc2)c(=O)c1C(=O)Nc1ccc(Oc2cc(-c3cn(C)cn3)cn3nccc23)cc1` [Example 118, 4-Ethoxy-1-(4-fluoro-phenyl)-2-oxo-1,2-dihydro-pyridine-3-carboxylic acid {4-[6-(1-methyl-1H-imidazol-4-yl)-pyrazolo[1,5-a]pyridin-4-yloxy]-phenyl}-amide], for which the IC50 is under 10 nM.

With `O=C(Nc1ccc(Oc2cc(N3CCCCC3)cn3nccc23)c(F)c1)c1cccn(-c2ccc(F)cc2)c1=O` [Example 57, 1-(4-Fluoro-phenyl)-2-oxo-1,2-dihydro-pyridine-3-carboxylic acid[3-fluoro-4-(6-piperidin-1-yl-pyrazolo[1,5-a]pyridin-4-yloxy)-phenyl]-amide], the 50% inhibitory concentration (IC50) was under 10 nM.

Turning to `CCn1cc(C(=O)Nc2ccc(Oc3cc(Nc4ccccn4)cn4nccc34)c(F)c2)c(=O)n(-c2ccc(F)cc2)c1=O` [Example 86, 1-Ethyl-3-(4-fluoro-phenyl)-2,4-dioxo-1,2,3,4-tetrahydro-pyrimidine-5-carboxylic acid{3-fluoro-4-[6-(pyridin-2-ylamino)-pyrazolo[1,5-a]pyridin-4-yloxy]-phenyl}-amide], the IC50 lay in the range of 10 to 100 nM.

With `CCn1cc(C(=O)Nc2ccc(Oc3cc(-c4cccc(C)n4)cn4nccc34)c(F)c2)c(=O)n(-c2ccc(F)cc2)c1=O` [Example 136, 1-Ethyl-3-(4-fluoro-phenyl)-2,4-dioxo-1,2,3,4-tetrahydro-pyrimidine-5-carboxylic acid{3-fluoro-4-[6-(6-methyl-pyridin-2-yl)-pyrazolo[1,5-a]pyridin-4-yloxy]-phenyl}-amide], the IC50 fell in the range of 10 to 100 nM.

With `O=C(Nc1ccc(Oc2cc(N3CCS(=O)(=O)CC3)cn3nccc23)c(F)c1)c1cccn(-c2ccc(F)cc2)c1=O` [Example 72, 1-(4-Fluoro-phenyl)-2-oxo-1,2-dihydro-pyridine-3-carboxylic acid{4-[6-(1,1-dioxo-thiomorpholin-4-yl)-pyrazolo[1,5-a]pyridin-4-yloxy]-3-fluoro-phenyl}-amide], the half-inhibitory concentration (IC50) lay in the range of 10 to 100 nM.

For the compound `O=C(Nc1ccc(Oc2cc(Br)cn3nccc23)c(F)c1)c1cccn(-c2ccc(F)cc2)c1=O` [Example 24, (4-Fluoro-phenyl)-2-oxo-1,2-dihydro-pyridine-3-carboxylic acid [4-(6-bromo-pyrazolo[1,5-a]pyridin-4-yloxy)-3-fluoro-phenyl]-amide], the IC50 is under 10 nM.

On to `O=C(Nc1ccc(F)cc1)C1(C(=O)Nc2ccc(Oc3cccn4nccc34)c(F)c2)CC1` [Example 5, Cyclopropane-1,1-dicarboxylic acid (4-fluoro-phenyl)-amide [3-fluoro-4-(pyrazolo[1,5-a]pyridin-4-yloxy)-phenyl]-amide], for which the IC50 was under 10 nM.

Turning to `Cn1ccnc1-c1cc(Oc2ccc(NC(=O)c3cccn(-c4ccc(F)cc4)c3=O)cc2F)c2ccnn2c1` [Example 90, 1-(4-Fluoro-phenyl)-2-oxo-1,2-dihydro-pyridine-3-carboxylic acid{3-fluoro-4-[6-(1-methyl-1H-imidazol-2-yl)-pyrazolo[1,5-a]pyridin-4-yloxy]-phenyl}-amide], the IC50 was under 10 nM.

On to `O=C(Nc1ccc(Oc2cc(N3CCC4(CC3)OCCO4)cn3nccc23)c(F)c1)c1cccn(-c2ccc(F)cc2)c1=O` [Example 67, 1-4-(Fluoro-phenyl)-2-oxo-1,2-dihydro-pyridine-3-carboxylic acid{4-[6-(1,4-dioxa-8-aza-spiro[4,5]dec-8-yl)-pyrazolo[1,5-a]pyridin-4-yloxy]-3-fluoro-phenyl}-amide], for which the half-maximal inhibitory concentration (IC50) lay in the range of 10 to 100 nM.

In the case of `Cc1ccc(C(=O)Nc2ccc(Oc3cc(Nc4ccc(F)cn4)cn4nccc34)c(F)c2)c(=O)n1-c1ccc(F)cc1` [Example 83, 1-(4-Fluoro-phenyl)-6-methyl-2-oxo-1,2-dihydro-pyridine-3-carboxylic acid {3-fluoro-4-[6-(5-fluoro-pyridin-2-ylamino)-pyrazolo[1,5-a]pyridin-4-yloxy]-phenyl}-amide], the 50% inhibitory concentration (IC50) was under 10 nM.

`CC(C)n1cc(C(=O)Nc2ccc(Oc3cc(C(=O)N(C)C)cn4nccc34)c(F)c2)c(=O)n(-c2ccc(F)cc2)c1=O` [Example 138, 4-(2-Fluoro-4-{[3-(4-fluoro-phenyl)-1-isopropyl-2,4-dioxo-1,2,3,4-tetrahydro-pyrimidine-5-carbonyl]-amino}-phenoxy)-pyrazolo[1,5-a]pyridine-6-carboxylic acid dimethylamide]: the 50% inhibitory concentration (IC50) was under 10 nM.

Consider `CCn1cc(C(=O)Nc2ccc(Oc3cc(NC(=O)N(C)C)cn4nccc34)c(F)c2)c(=O)n(-c2ccc(F)cc2)c1=O` [Example 146, 1-Ethyl-3-(4-fluoro-phenyl)-2,4-dioxo-1,2,3,4-tetrahydro-pyrimidine-5-carboxylic acid {4-[6-(3,3-dimethyl-urea)-pyrazolo[1,5-a]pyridin-4-yloxy]-3-fluoro-phenyl}-amide], for which the IC50 is under 10 nM.

Turning to `O=C(Cc1ccc(F)cc1)NC(=S)Nc1ccc(Oc2cccn3nccc23)c(F)c1` [Example 6, 1-[2-(4-Fluoro-phenyl)-acetyl]-3-[3-fluoro-4-(pyrazolo[1,5-a]pyridin-4-yloxy)-phenyl]-thiourea], the 50% inhibitory concentration (IC50) was in the range of 10 to 100 nM.

On to `CC(C)n1cc(C(=O)Nc2ccc(Oc3cc(Nc4ncccn4)cn4nccc34)c(F)c2)c(=O)n(-c2ccc(F)cc2)c1=O` [Example 85, 3-(4-Fluoro-phenyl)-1-isopropyl-2,4-dioxo-1,2,3,4-tetrahydro-pyrimidine-5-carboxylic acid{3-fluoro-4-[6-(pyrimidin-2-ylamino)-pyrazolo[1,5-a]pyridin-4-yloxy]-phenyl}-amide], for which the IC50 is under 10 nM.

On to `CC(C)n1cc(C(=O)Nc2ccc(Oc3cc(N4CCC(F)(F)C4)cn4nccc34)c(F)c2)c(=O)n(-c2ccc(F)cc2)c1=O` [Example 71, 3-(4-Fluoro-phenyl)-1-isopropyl-2,4-dioxo-1,2,3,4-tetrahydro-pyrimidine-5-carboxylic acid{4-[6-(3,3-difluoro-pyrrolidin-1-yl)-pyrazolo[1,5-a]pyridin-4-yloxy]-3-fluoro-phenyl}-amide], for which the IC50 lay in the range of 10 to 100 nM.

Take `O=C(Nc1ccc(F)cc1)C1(C(=O)Nc2ccc(Oc3cc(N4CCOCC4)cn4nccc34)c(F)c2)CC1` [Example 63, Cyclopropane-1,1-dicarboxylic acid[3-fluoro-4-(6-morpholin-4-yl-pyrazolo[1,5-a]pyridin-4-yloxy)-phenyl]-amide(4-fluoro-phenyl)-amide]: the IC50 lay within 10 to 100 nM.

Regarding `CC(=O)Nc1cc(Oc2ccc(NC(=O)c3cn(C(C)C)c(=O)n(-c4ccc(F)cc4)c3=O)cc2F)c2ccnn2c1` [Example 143, 3-(4-Fluoro-phenyl)-1-isopropyl-2,4-dioxo-1,2,3,4-tetrahydro-pyrimidine-5-carboxylic acid[4-(6-acetylamino-pyrazolo[1,5-a]pyridin-4-yloxy)-3-fluoro-phenyl]-amide], the IC50 is under 10 nM.

With `O=C(Nc1ccc(Oc2cc(Nc3ccccc3)cn3nccc23)c(F)c1)c1cccn(-c2ccc(F)cc2)c1=O` [Example 80, 1-(4-Fluoro-phenyl)-2-oxo-1,2-dihydro-pyridine-3-carboxylic acid[3-fluoro-4-(6-phenylamino-pyrazolo[1,5-a]pyridin-4-yloxy)-phenyl]-amide], the IC50 is under 10 nM.

In the case of `CCn1nc(C(=O)Nc2ccc(Oc3cc(-c4cn(C)cn4)cn4nccc34)cn2)c(=O)n(-c2ccc(F)cc2)c1=O` [Example 130, 2-Ethyl-4-(4-fluoro-phenyl)-3,5-dioxo-2,3,4,5-tetrahydro-1,2,4-triazine-6-carboxylic acid{5-[6-(1-methyl-1H-imidazol-4-yl)-pyrazolo[1,5-a]pyridin-4-yloxy]-pyridin-2-yl}-amide], the 50% inhibitory concentration (IC50) is under 10 nM.

On to `CC(C)n1cc(C(=O)Nc2ccc(Oc3cc(-c4cn(C)cn4)cn4nccc34)c(O)c2)c(=O)n(-c2ccc(F)cc2)c1=O` [Example 122, 3-(4-Fluoro-phenyl)-1-isopropyl-2,4-dioxo-1,2,3,4-tetrahydro-pyrimidine-5-carboxylic acid{3-hydroxy-4-[6-(1-methyl-1H-imidazol-4-yl)-pyrazolo[1,5-a]pyridin-4-yloxy]-phenyl}-amide], for which the half-maximal inhibitory concentration (IC50) was in the range of 10 to 100 nM.

Regarding `Cn1cnc(-c2cc(Oc3ccc(Nc4ncccn4)cc3F)c3ccnn3c2)c1` [Example 152, {3-Fluoro-4-[6-(1-methyl-1H-imidazol-4-yl)-pyrazolo[1,5-a]pyridin-4-yloxy]-phenyl}-pyrimidin-2-yl-amine], the IC50 lay within 1000 to 10000 nM.

What is called IC50 is the concentration at which inhibition is half-maximal.
